From patent publication US11357779B2 (G1 Therapeutics, Inc., priority 2018, dated 2022)
Like-named read-outs stand apart in the source and are kept apart here.

Test: Noncompartmental pharmacokinetic parameters (Cmax, Tmax, AUC, Racc) in QD and BID cohorts of Form B
Type: in vivo, human
Conditions: Compound III; for AUC(0-t) / Cmax / Tmax: human, plasma, oral
Procedure: Analysis of plasma concentration versus time data for calculation of standard pharmacokinetic (PK) parameters following oral administration was conducted using Phoenix WinNonlin version 6.3 using actual blood sampling times.
The following pharmacokinetic parameters were calculated from the concentration versus time data obtained in Example 1 for each of the above QD (200 mg, 300 mg, 400 mg, 500 mg, or 650 mg dosed) and BID (100 mg, 150 mg, or 200 mg doses) Form B of Compound II dosage cohorts: • Cmax—the observed peak plasma concentration determined from the plasma concentration versus time data obtained on Day 1 and Day 29, as applicable; • Tmax—the time to reach the observed peak plasma concentration from the plasma concentration versus time data obtained on Day 1 and Day 29, as applicable; • AUC—area under the plasma concentration versus time curve during a dosing interval on Day 1 and Day 29, as applicable; and • Racc—accumulation ratio calculated as AUCDay 29/AUCDay 1.

[1] = 100 mg BID of Form B, Cohort 6, Day 1
[2] = 100 mg BID of Form B, Cohort 6, Day 29
[3] = 150 mg BID of Form B, Cohort 7, Day 1
[4] = 150 mg BID of Form B, Cohort 7, Day 29
[5] = 200 mg BID of Form B, Cohort 8, Day 1
[6] = 200 mg BID of Form B, Cohort 8, Day 29
[7] = 200 mg QD of Form B, Cohort 1, Day 1
[8] = 200 mg QD of Form B, Cohort 1, Day 29
[9] = 300 mg QD of Form B, Cohort 2, Day 1
[10] = 300 mg QD of Form B, Cohort 2, Day 29
[11] = 400 mg QD of Form B, Cohort 3, Day 1
[12] = 400 mg QD of Form B, Cohort 3, Day 29
[13] = 500 mg QD of Form B, Cohort 4, Day 1
[14] = 500 mg QD of Form B, Cohort 4, Day 29
[15] = 650 mg QD of Form B, Cohort 5, Day 1
[16] = 650 mg QD of Form B, Cohort 5, Day 29

O=C1NCC2(CCCCC2)n2c1cc1cnc(Nc3ccc(N4CCNCC4)cn3)nc12 [Compound III, 2′-((5-(piperazin-1-yl)pyridin-2-yl)amino)-7′,8′-dihydro-6′H-spiro[cyclohexane-1,9′-pyrazino[1′,2′:1,5]pyrrolo[2,3-d]pyrimidin]-6′-one]
AUClast (Max) [1]: 8.61 ng·h/mL
AUClast (Min) [1]: 2.87 ng·h/mL
Cmax (Max) [1]: 2.12 ng/mL
Cmax (Min) [1]: 1.11 ng/mL
AUClast (Max) [2]: 21.6 ng·h/mL
AUClast (Min) [2]: 3.45 ng·h/mL
Cmax (Max) [2]: 3.11 ng/mL
Cmax (Min) [2]: 0.855 ng/mL
Tmax (Max) [2]: 12.0 h
AUClast (Max) [3]: 17.5 ng·h/mL
AUClast (Min) [3]: 15.7 ng·h/mL
Cmax (Max) [3]: 3.67 ng/mL
Cmax (Min) [3]: 2.93 ng/mL
AUClast (Max) [4]: 101 ng·h/mL
AUClast (Min) [4]: 19.4 ng·h/mL
Cmax (Max) [4]: 12.2 ng/mL
Cmax (Min) [4]: 2.93 ng/mL
AUClast (Max) [5]: 25.4 ng·h/mL
AUClast (Min) [5]: 6.18 ng·h/mL
Cmax (Max) [5]: 4.07 ng/mL
Cmax (Min) [5]: 1.40 ng/mL
AUClast (Max) [6]: 30.8 ng·h/mL
AUClast (Min) [6]: 15.2 ng·h/mL
Cmax (Max) [6]: 4.12 ng/mL
Cmax (Min) [6]: 1.49 ng/mL
Tmax (Max) [6]: 12.0 h
AUClast (Max) [7]: 58.5 ng·h/mL
AUClast (Min) [7]: 5.29 ng·h/mL
Cmax (Max) [7]: 7.82 ng/mL
Cmax (Min) [7]: 1.27 ng/mL
AUClast (Max) [8]: 64.2 ng·h/mL
AUClast (Min) [8]: 1.97 ng·h/mL
Cmax (Max) [8]: 6.11 ng/mL
Cmax (Min) [8]: 0.864 ng/mL
AUClast (Max) [9]: 65.2 ng·h/mL
AUClast (Min) [9]: 10.9 ng·h/mL
Cmax (Max) [9]: 6.40 ng/mL
Cmax (Min) [9]: 1.82 ng/mL
Tmax (Min) [9]: 60 min
AUClast (Max) [10]: 97.5 ng·h/mL
AUClast (Min) [10]: 45.1 ng·h/mL
Cmax (Max) [10]: 6.05 ng/mL
Cmax (Min) [10]: 4.70 ng/mL
Tmax (Max) [10]: 8.00 h
AUClast (Max) [11]: 29.8 ng·h/mL
AUClast (Min) [11]: 17.8 ng·h/mL
Cmax (Max) [11]: 6.87 ng/mL
Cmax (Min) [11]: 3.02 ng/mL
Tmax (Min) [11]: 60 min
AUClast (Max) [12]: 54.7 ng·h/mL
AUClast (Min) [12]: 32.2 ng·h/mL
Cmax (Max) [12]: 4.54 ng/mL
Cmax (Min) [12]: 2.55 ng/mL
AUClast (Max) [13]: 91.4 ng·h/mL
AUClast (Min) [13]: 61.6 ng·h/mL
Cmax (Max) [13]: 9.03 ng/mL
Cmax (Min) [13]: 6.84 ng/mL
AUClast (Max) [14]: 69.8 ng·h/mL
AUClast (Min) [14]: 59.8 ng·h/mL
Cmax (Max) [14]: 7.91 ng/mL
AUClast (Max) [15]: 174 ng·h/mL
AUClast (Min) [15]: 61.8 ng·h/mL
Cmax (Max) [15]: 16.5 ng/mL
Cmax (Min) [15]: 5.56 ng/mL
Tmax (Max) [15]: 8.00 h
AUClast (Max) [16]: 169 ng·h/mL
AUClast (Min) [16]: 80.6 ng·h/mL
Cmax (Max) [16]: 12.1 ng/mL
Cmax (Min) [16]: 5.30 ng/mL
Tmax (Max) [16]: 8.00 h
AUC(0-t) (100 mg, 100 mg BID of Form B, Cohort 6, Day 1, read-out: AUClast (Mean)): 5.37 ng·h/mL
AUC(0-t) (100 mg, 100 mg BID of Form B, Cohort 6, Day 1, read-out: AUClast (Median)): 5.18 ng·h/mL
Cmax (100 mg, 100 mg BID of Form B, Cohort 6, Day 1, read-out: Cmax (Mean)): 1.59 ng/mL
Cmax (100 mg, 100 mg BID of Form B, Cohort 6, Day 1, read-out: Cmax (Median)): 1.6 ng/mL
Tmax (100 mg, 100 mg BID of Form B, Cohort 6, Day 1, read-out: Tmax (Mean)): 3.17 h
Tmax (100 mg, 100 mg BID of Form B, Cohort 6, Day 1, read-out: Tmax (Median)): 3 h
AUC(0-t) (100 mg, 100 mg BID of Form B, Cohort 6, Day 29, read-out: AUClast (Mean)): 13 ng·h/mL
AUC(0-t) (100 mg, 100 mg BID of Form B, Cohort 6, Day 29, read-out: AUClast (Median)): 9.86 ng·h/mL
Cmax (100 mg, 100 mg BID of Form B, Cohort 6, Day 29, read-out: Cmax (Mean)): 1.89 ng/mL
Cmax (100 mg, 100 mg BID of Form B, Cohort 6, Day 29, read-out: Cmax (Median)): 1.56 ng/mL
Tmax (100 mg, 100 mg BID of Form B, Cohort 6, Day 29, read-out: Tmax (Mean)): 4.4 h
Tmax (100 mg, 100 mg BID of Form B, Cohort 6, Day 29, read-out: Tmax (Median)): 2 h
AUC(0-t) (150 mg, 150 mg BID of Form B, Cohort 7, Day 1, read-out: AUClast (Mean)): 16.5 ng·h/mL
